The source of these data is ChEMBL document CHEMBL4017490, “Design, Synthesis, and Pharmacological Evaluation of Novel Multisubstituted Pyridin-3-amine Derivatives as Multitargeted Protein Kinase Inhibitors for the Treatment of Non-Small Cell Lung Cancer” (J Med Chem, 2017).

For orientation: IC50 means the point on the concentration scale where inhibition reaches its midpoint.

Experiment [1] concerns the target Fibroblast growth factor receptor 1 (Homo sapiens, UniProt P11362). As to the kind of experiment: Inhibition of recombinant human FGFR1 using poly (Glu,Tyr) 4:1 as substrate after 60 mins by ELISA.
Experiment [2] addresses Fibroblast growth factor receptor 2 (Homo sapiens, UniProt P21802).
Description: Inhibition of recombinant human FGFR2 using poly (Glu,Tyr) 4:1 as substrate after 60 mins by ELISA
In experiment [3] the target is Fibroblast growth factor receptor 3 (Homo sapiens, UniProt P22607). As to the kind of experiment: Inhibition of recombinant human FGFR3 using poly (Glu,Tyr) 4:1 as substrate after 60 mins by ELISA. (In general: ELISA stands for enzyme-linked immunosorbent assay.)
Chain of Fibroblast growth factor receptor 3 (P22607 whole entry): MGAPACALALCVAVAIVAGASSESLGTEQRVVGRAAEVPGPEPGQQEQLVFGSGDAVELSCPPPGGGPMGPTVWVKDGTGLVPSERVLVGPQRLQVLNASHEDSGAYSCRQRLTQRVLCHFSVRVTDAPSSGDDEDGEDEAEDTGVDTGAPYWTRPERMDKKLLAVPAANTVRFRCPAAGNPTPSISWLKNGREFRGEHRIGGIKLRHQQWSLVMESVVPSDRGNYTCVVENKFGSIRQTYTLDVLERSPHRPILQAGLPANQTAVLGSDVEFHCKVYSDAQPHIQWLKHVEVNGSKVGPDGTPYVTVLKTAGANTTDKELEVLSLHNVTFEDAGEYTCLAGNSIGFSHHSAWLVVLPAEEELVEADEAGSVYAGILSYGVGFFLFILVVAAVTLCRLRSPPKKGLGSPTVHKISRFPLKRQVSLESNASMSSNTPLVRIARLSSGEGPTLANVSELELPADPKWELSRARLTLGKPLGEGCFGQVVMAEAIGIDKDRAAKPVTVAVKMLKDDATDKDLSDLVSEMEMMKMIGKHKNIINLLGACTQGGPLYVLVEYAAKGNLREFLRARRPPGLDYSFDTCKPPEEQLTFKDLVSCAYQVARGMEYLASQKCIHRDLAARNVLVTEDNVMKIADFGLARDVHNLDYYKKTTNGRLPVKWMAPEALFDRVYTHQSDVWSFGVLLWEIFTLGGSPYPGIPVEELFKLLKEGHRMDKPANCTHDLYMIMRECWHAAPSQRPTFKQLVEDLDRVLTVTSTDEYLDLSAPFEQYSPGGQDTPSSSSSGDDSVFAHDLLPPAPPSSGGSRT
The nature of experiment [4]: Inhibition of FGFR3 mutant in human UM-UC-14 cells assessed as inhibition of cell proliferation after 72 hrs by cell counting kit-8 assay. In kind it is cell-based. The following applies: UMUC14, 72 h. Background: Tetrazolium assays rely on reduction of a dye to a coloured formazan, in cell work by metabolically active cells.

Chain of Fibroblast growth factor receptor 2 (P21802 whole entry): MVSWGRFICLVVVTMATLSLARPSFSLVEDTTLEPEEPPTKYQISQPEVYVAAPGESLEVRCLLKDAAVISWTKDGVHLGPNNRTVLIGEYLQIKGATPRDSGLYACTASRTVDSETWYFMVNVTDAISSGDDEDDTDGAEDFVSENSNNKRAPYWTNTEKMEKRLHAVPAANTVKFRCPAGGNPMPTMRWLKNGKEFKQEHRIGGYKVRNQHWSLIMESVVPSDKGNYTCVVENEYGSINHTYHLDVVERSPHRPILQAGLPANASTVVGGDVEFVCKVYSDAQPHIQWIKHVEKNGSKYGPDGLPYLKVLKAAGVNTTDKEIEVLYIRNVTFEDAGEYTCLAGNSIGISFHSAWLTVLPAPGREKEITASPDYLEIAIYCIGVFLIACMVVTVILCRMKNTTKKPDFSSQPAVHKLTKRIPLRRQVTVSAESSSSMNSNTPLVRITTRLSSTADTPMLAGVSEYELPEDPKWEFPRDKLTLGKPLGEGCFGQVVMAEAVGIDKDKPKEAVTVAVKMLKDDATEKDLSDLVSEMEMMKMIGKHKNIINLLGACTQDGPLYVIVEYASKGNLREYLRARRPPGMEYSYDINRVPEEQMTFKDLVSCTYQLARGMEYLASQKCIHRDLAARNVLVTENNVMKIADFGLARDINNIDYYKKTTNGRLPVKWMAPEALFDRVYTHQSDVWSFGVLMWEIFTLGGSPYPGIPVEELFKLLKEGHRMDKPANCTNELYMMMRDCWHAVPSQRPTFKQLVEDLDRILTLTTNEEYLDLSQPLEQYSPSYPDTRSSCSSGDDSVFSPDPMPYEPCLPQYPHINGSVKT
Chain of Fibroblast growth factor receptor 1 (P11362 whole entry): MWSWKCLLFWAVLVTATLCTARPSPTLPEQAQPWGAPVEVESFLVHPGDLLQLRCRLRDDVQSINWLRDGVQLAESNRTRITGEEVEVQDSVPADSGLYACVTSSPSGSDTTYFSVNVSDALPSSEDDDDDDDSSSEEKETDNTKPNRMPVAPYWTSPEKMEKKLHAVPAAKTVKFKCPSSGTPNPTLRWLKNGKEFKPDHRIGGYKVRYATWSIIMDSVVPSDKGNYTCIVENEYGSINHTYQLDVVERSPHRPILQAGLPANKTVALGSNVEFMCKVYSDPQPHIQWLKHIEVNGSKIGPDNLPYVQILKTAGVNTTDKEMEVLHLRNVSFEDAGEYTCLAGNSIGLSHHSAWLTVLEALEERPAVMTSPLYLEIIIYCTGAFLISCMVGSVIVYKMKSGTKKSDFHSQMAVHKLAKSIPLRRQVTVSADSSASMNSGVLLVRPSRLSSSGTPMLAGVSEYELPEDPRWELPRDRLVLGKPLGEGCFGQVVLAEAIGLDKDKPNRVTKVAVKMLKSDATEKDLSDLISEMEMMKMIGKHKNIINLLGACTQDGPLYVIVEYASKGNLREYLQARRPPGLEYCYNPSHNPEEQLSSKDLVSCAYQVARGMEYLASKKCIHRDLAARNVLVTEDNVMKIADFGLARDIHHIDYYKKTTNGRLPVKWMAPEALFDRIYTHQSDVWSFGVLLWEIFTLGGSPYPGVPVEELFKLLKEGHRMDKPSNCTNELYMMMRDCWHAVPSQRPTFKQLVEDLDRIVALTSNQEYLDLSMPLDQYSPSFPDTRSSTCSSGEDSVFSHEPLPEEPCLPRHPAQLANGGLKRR

In the case of `Cc1n[nH]c2ccc(-c3cc(N[C@@H](CO)c4ccccc4)cnc3-c3ccccc3C(F)(F)F)cc12`, the IC50 in experiment [1], in experiment [2] and in experiment [3] was greater than 1000 nM each time.

For `Cc1n[nH]c2ccc(-c3cc(N[C@@H](CO)c4ccccc4)cnc3-c3cccc(O)c3)cc12`, the IC50 worked out at 66.5 nM in experiment [1], 21.4 nM in experiment [2] and 434 nM in experiment [3].

As to `Cc1n[nH]c2ccc(-c3cc(N[C@@H](CO)c4ccccc4)cnc3-c3ccccc3C(N)=O)cc12`, the values for the IC50 in experiment [1], in experiment [2] and in experiment [3] were 48.8 nM, 72.9 nM and 388 nM, respectively.

Turning to `Cc1n[nH]c2ccc(-c3cc(NC[C@H](O)c4ccccc4)cnc3-c3cc(Cl)ccc3O)cc12`, the IC50 in experiment [1] is 168 nM; in experiment [2], 71.9 nM; in experiment [3], 401 nM.

Turning to `Cc1n[nH]c2ccc(-c3cc(N[C@@H](CO)c4ccccc4)cnc3-c3ccccc3O)cc12`, the figures for the IC50 in experiment [1], in experiment [2] and in experiment [3] were 14.9 nM, 3 nM and 8 nM, respectively.

`Cc1n[nH]c2ccc(-c3cc(N[C@@H](CO)c4ccccc4)cnc3-c3ccccc3CO)cc12`: the IC50 in experiment [1] came to 167 nM; in experiment [2], 50.5 nM; in experiment [3], 251 nM.

With `Cc1n[nH]c2ccc(-c3cc(N[C@@H](CO)c4ccccc4)cnc3-c3cc(F)cc(F)c3O)cc12`, the IC50 in experiment [1] was found to be 63.5 nM; in experiment [2] it was 3.4 nM; in experiment [3], 58.4 nM.

With `Cc1n[nH]c2ccc(-c3cc(N[C@@H](CO)c4ccccc4)cnc3-c3ccco3)cc12`, the results for the IC50 in experiment [1], in experiment [2] and in experiment [3] were greater than 1000 nM, 100 to 1000 nM and greater than 1000 nM, respectively.

As for `Cc1n[nH]c2ccc(-c3cc(N[C@@H](CO)c4ccccc4)cnc3-c3cccc4cccnc34)cc12`, the IC50 in experiment [1], in experiment [2] and in experiment [3] was greater than 1000 nM throughout.

Regarding `OC[C@H](Nc1cnc(-c2cc(Cl)ccc2O)c(-c2ccc3[nH]ccc3c2)c1)c1ccccc1`, the IC50 in experiment [1], in experiment [2] and in experiment [3] was greater than 1000 nM throughout.

For `Cc1n[nH]c2ccc(-c3cc(N[C@H](CO)c4ccccc4)cnc3-c3cc(Cl)ccc3O)cc12`, the IC50 in experiment [1], in experiment [2] and in experiment [3] was greater than 1000 nM in each case.

As to `O=C1Cc2cc(-c3cc(N[C@@H](CO)c4ccccc4)cnc3-c3cc(Cl)ccc3O)ccc2N1`, the IC50 in experiment [1] stood at 91.5 nM; in experiment [2] it was 154 nM; in experiment [3], 591 nM.

Regarding `Cc1n[nH]c2ncc(-c3cc(N[C@@H](CO)c4ccccc4)cnc3-c3cc(Cl)ccc3O)cc12`, the figures for the IC50 in experiment [1], in experiment [2] and in experiment [3] were 24.9 nM, 6.6 nM and 93.9 nM, respectively.

`Cc1n[nH]c2ccc(-c3cc(NCCO)cnc3-c3cc(F)ccc3O)cc12`: the IC50 in experiment [1], in experiment [2] and in experiment [3] was greater than 1000 nM each time.

In the case of `Cc1n[nH]c2ccc(-c3cc(N[C@@H](CO)c4ccccc4)cnc3-c3cccs3)cc12`, the IC50 is greater than 1000 nM in experiment [1], 100 to 1000 nM in experiment [2] and greater than 1000 nM in experiment [3].

As to `Cc1n[nH]c2ccc(-c3cc(N[C@@H](CO)c4ccccc4)cnc3-c3ccccc3)cc12`, the IC50 came out at 128 nM in experiment [1], 26.3 nM in experiment [2] and 280 nM in experiment [3].

As to `Cc1n[nH]c2ccc(-c3cc(NCCCO)cnc3-c3cc(F)ccc3O)cc12`, the concentration for half-maximal inhibition (IC50) in experiment [1], in experiment [2] and in experiment [3] was greater than 1000 nM each time.

With `Cc1n[nH]c2ccc(-c3cc(N[C@@H](CO)c4ccccc4)cnc3-c3cccc4cc[nH]c34)cc12`, the IC50 in experiment [1] was determined as 456 nM; in experiment [2], 56.4 nM; in experiment [3], 561 nM.

Turning to `COc1ccccc1-c1ncc(N[C@@H](CO)c2ccccc2)cc1-c1ccc2[nH]nc(C)c2c1`, the IC50 in experiment [1] is greater than 1000 nM; in experiment [2], 100 to 1000 nM; in experiment [3], greater than 1000 nM.

Consider `CC(=O)Nc1ccc(-c2cc(N[C@@H](CO)c3ccccc3)cnc2-c2cc(Cl)ccc2O)cc1`, for which the IC50 in experiment [1], in experiment [2] and in experiment [3] was greater than 1000 nM in each case.

Regarding `COc1cc(CCc2cc(NC(=O)c3ccc(N4C[C@@H](C)N[C@@H](C)C4)cc3)n[nH]2)cc(OC)c1` [FEXAGRATINIB], the IC50 in experiment [4] was found to be 27.1 nM.

On to `Cc1n[nH]c2ccc(-c3cc(N[C@@H](CO)c4ccccc4)cnc3-c3cc(C(C)C)ccc3O)cc12`, for which the half-inhibitory concentration (IC50) in experiment [1], in experiment [2] and in experiment [3] was greater than 1000 nM each time.

In the case of `Cc1n[nH]c2ccc(-c3cc(N[C@@H](CO)c4ccccc4)cnc3-c3ccsc3)cc12`, the IC50 in experiment [1] came to 327 nM; in experiment [2], 56.9 nM; in experiment [3], 970 nM.

As for `Cc1n[nH]c2ccc(-c3cc(N[C@@H](C)c4ccccc4)cnc3-c3cc(Cl)ccc3O)cc12`, the IC50 in experiment [1], in experiment [2] and in experiment [3] was greater than 1000 nM throughout.

For the compound `Cc1n[nH]c2ccc(-c3cc(N[C@@H](CO)c4ccccc4)cnc3-c3cc(F)c(F)cc3O)cc12`, the IC50 in experiment [1] turned out to be 10.6 nM; in experiment [2], 2.8 nM; in experiment [3], 27.6 nM.

Regarding `Cc1ccc(O)c(-c2ncc(N[C@@H](CO)c3ccccc3)cc2-c2ccc3[nH]nc(C)c3c2)c1`, the IC50 in experiment [1] is 32.3 nM; in experiment [2], 16.1 nM; in experiment [3] it was 22.8 nM.

As for `Cc1n[nH]c2ccc(-c3cc(N[C@@H](CO)c4ccccc4)cnc3-c3cccc(F)c3O)cc12`, the IC50 in experiment [1] stood at 27.9 nM; in experiment [2], 2.5 nM; in experiment [3], 35.3 nM.

With `CC(=O)Nc1ccccc1-c1ncc(N[C@@H](CO)c2ccccc2)cc1-c1ccc2[nH]nc(C)c2c1`, the half-inhibitory concentration (IC50) in experiment [1] came to 418 nM; in experiment [2], 250 nM; in experiment [3], 3650 nM.

For the compound `Cc1n[nH]c2ccc(-c3cc(N[C@@H](CO)c4ccccc4)cnc3-c3ccoc3)cc12`, the IC50 in experiment [1] was 3800 nM; in experiment [2], greater than 1000 nM; in experiment [3], greater than 1000 nM.

In the case of `Cc1n[nH]c2ccc(-c3cc(N[C@@H](CO)c4ccccc4)cnc3-c3ccccc3F)cc12`, the values for the IC50 in experiment [1], in experiment [2] and in experiment [3] were 437 nM, 44.6 nM and 431 nM, respectively.

As to `Cc1n[nH]c2ccc(-c3cc(N[C@@H](CO)c4ccccc4)cnc3-c3cccnc3)cc12`, the IC50 in experiment [1], in experiment [2] and in experiment [3] was greater than 1000 nM each time.
